Assay [1] concerns the target Norepinephrine transporter (Rattus norvegicus, UniProt Q9WTR4). In words: Inhibition of high affinity uptake by the norepinephrine transporter from rat synaptosomal nerve endings by using [3H]NE as radioligand.
Assay [2] deals with Sodium-dependent serotonin transporter (Rattus norvegicus, UniProt P31652). The assay can be described thus: Inhibition of high affinity uptake by the serotonin transporter (5-HT) from rat synaptosomal nerve endings by using [3H]5-HT as radioligand.
Sequence of Sodium-dependent serotonin transporter (P31652 whole entry): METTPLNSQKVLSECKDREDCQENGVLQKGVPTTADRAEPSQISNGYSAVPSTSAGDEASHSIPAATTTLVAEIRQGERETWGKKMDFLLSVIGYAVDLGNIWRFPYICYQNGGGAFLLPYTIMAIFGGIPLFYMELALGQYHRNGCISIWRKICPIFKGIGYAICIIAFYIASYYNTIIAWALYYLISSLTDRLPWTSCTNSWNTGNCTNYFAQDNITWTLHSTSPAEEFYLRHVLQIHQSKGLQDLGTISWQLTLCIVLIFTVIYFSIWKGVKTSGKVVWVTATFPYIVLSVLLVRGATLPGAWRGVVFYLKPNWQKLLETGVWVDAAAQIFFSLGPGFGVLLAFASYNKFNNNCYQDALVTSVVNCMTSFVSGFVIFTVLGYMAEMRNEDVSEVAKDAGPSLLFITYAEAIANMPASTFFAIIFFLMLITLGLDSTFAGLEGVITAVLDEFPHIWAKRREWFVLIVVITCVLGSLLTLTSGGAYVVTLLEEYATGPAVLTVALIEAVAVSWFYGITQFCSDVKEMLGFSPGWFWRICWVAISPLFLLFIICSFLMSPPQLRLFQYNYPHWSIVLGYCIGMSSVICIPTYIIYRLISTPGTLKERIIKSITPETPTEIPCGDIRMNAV
The target in assay [3] is Sodium-dependent dopamine transporter (Rattus norvegicus, UniProt P23977). In words: Inhibition of high affinity uptake by the dopamine transporter from rat synaptosomal nerve endings by using [3H]DA as radioligand.
Sequence of Sodium-dependent dopamine transporter (P23977 whole entry): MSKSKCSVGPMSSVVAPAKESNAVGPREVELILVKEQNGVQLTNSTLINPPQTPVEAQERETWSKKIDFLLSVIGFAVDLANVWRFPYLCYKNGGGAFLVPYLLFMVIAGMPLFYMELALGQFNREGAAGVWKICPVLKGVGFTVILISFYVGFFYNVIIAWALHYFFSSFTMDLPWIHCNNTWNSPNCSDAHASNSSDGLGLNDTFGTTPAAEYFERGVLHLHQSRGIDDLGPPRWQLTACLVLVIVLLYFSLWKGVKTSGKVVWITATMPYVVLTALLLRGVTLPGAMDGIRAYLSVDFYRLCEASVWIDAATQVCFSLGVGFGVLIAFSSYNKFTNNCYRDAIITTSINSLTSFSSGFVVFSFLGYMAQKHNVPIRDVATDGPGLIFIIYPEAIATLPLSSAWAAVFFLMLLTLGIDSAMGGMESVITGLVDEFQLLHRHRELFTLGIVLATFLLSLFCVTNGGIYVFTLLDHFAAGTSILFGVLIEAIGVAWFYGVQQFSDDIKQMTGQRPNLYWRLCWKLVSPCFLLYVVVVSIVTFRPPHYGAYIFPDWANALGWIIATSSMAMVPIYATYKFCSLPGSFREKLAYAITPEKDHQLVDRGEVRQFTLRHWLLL

Each structure is given as a SMILES string.

Sequence of Norepinephrine transporter (Q9WTR4 whole entry): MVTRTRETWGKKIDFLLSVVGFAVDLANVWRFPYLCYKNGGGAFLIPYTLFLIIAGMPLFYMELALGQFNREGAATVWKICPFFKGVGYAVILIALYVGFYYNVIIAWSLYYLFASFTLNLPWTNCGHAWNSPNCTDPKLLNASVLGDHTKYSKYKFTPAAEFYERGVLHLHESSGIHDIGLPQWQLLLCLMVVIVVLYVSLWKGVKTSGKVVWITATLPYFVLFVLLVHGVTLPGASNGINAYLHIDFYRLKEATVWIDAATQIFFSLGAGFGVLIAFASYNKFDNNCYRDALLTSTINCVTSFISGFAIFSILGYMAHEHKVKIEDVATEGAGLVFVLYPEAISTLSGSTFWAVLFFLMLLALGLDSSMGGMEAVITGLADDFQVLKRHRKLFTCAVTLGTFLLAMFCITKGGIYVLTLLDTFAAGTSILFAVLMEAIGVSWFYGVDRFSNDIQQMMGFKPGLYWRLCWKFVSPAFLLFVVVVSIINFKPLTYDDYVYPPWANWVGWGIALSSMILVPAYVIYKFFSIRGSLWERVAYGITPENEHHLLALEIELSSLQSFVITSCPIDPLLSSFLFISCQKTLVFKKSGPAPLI

As usually defined, the Ki is the equilibrium dissociation constant of an inhibitor or competing ligand from its target. Read a low Ki as higher affinity. As to `COC(=O)CSCC1CNCCC1c1ccc(Cl)cc1` (stereo not given), the values for the Ki in assay [1], in assay [2] and in assay [3] were 0.56 nM, 13 nM and 51 nM, respectively.

In the case of `CN1CCC(c2ccc(Cl)cc2)C(C[S+]([O-])CC(=O)N(C)C)C1` (stereo not given), the Ki in assay [1] is 1250 nM; in assay [2], 924 nM; in assay [3], 2880 nM.

For the compound `COC(=O)C[S+]([O-])CC1CN(C)CCC1c1ccc(Cl)cc1` (stereo not given), the Ki in assay [1] came to 53 nM; in assay [2] it was 809 nM; in assay [3], 231 nM.

Take `COCC[S+]([O-])CC1CN(C)CCC1c1ccc(Cl)cc1` (stereo not given): the Ki in assay [1] is 25 nM; in assay [2], 469 nM; in assay [3] it was 15 nM.

As to `CC(C)NC(=O)CSCC1CN(C)CCC1c1ccc(Cl)cc1` (stereo not given), the Ki in assay [1] stood at 0.8 nM; in assay [2] it was 1.1 nM; in assay [3], 1 nM.

`CN1CCC(c2ccc(Cl)cc2)C(C[S+]([O-])CCOC(=O)c2ccccc2)C1` (stereo not given): the Ki in assay [1] came to 18 nM; in assay [2] it was 199 nM; in assay [3] it was 32 nM.

In the case of `CN1CCC(c2ccc(Cl)cc2)C(C[S+]([O-])CC(=O)N2CCCCC2)C1` (stereo not given), the values for the inhibition constant (Ki) in assay [1], in assay [2] and in assay [3] were 460 nM, 825 nM and 379 nM, respectively.

On to `CN1CCC(c2ccc(Cl)cc2)C(C[S+]([O-])CC(=O)NO)C1` (stereo not given), for which the Ki in assay [1] was determined as 12 nM; in assay [2], 1800 nM; in assay [3], 55 nM.

Take `NC(=O)C[S+]([O-])CC1CNCCC1c1ccc(Cl)cc1` (stereo not given): the results for the Ki in assay [1], in assay [2] and in assay [3] were 31 nM, 775 nM and 108 nM, respectively.

As to `CN1CCC(c2ccc(Cl)cc2)C(CSCC(=O)N2CCCCC2)C1` (stereo not given), the Ki in assay [1] came out at 0.68 nM; in assay [2], 4.5 nM; in assay [3], 83 nM.

Consider `CNC(=O)C[S+]([O-])CC1CN(C)CCC1c1ccc(Cl)cc1` (stereo not given), for which the Ki in assay [1] worked out at 86 nM; in assay [2], 2030 nM; in assay [3] it was 164 nM.

Turning to `COCCSCC1CN(C)CCC1c1ccc(Cl)cc1` (stereo not given), the Ki in assay [1] is 6 nM; in assay [2] it was 191 nM; in assay [3], 50 nM.

For the compound `CC(C)NC(=O)C[S+]([O-])CC1CN(C)CCC1c1ccc(Cl)cc1` (stereo not given), the Ki is 20 nM in assay [1], 473 nM in assay [2] and 248 nM in assay [3].

Turning to `CNC(=O)CSCC1CN(C)CCC1c1ccc(Cl)cc1` (stereo not given), the Ki came out at 25 nM in assay [1], 110 nM in assay [2] and 13 nM in assay [3].

Take `CN1CCC(c2ccc(Cl)cc2)C(CSCC(=O)NO)C1` (stereo not given): the Ki in assay [1] was 15 nM; in assay [2], 227 nM; in assay [3], 85 nM.

In the case of `CC(=O)OCC[S+]([O-])CC1CN(C)CCC1c1ccc(Cl)cc1` (stereo not given), the values for the Ki in assay [1], in assay [2] and in assay [3] were 29 nM, 87 nM and 9 nM, respectively.

In the case of `CN1CCC(c2ccc(Cl)cc2)C(CSCC(=O)N(C)C)C1` (stereo not given), the Ki in assay [1] worked out at 27 nM; in assay [2], 88 nM; in assay [3], 116 nM.

Turning to `CN1CCC(c2ccc(Cl)cc2)C(CSCC(N)=O)C1` (stereo not given), the Ki in assay [1] is 39 nM; in assay [2] it was 557 nM; in assay [3] it was 159 nM.

As to `NC(=O)CSCC1CNCCC1c1ccc(Cl)cc1` (stereo not given), the Ki in assay [1] turned out to be 10 nM; in assay [2], 170 nM; in assay [3], 114 nM.

On to `CN1CCC(c2ccc(Cl)cc2)C(CI)C1` (stereo not given), for which the Ki is 424 nM in assay [1], 238 nM in assay [2] and 376 nM in assay [3].

As to `CC(=O)OCCSCC1CN(C)CCC1c1ccc(Cl)cc1` (stereo not given), the figures for the Ki in assay [1], in assay [2] and in assay [3] were 3.6 nM, 57 nM and 35 nM, respectively.

Consider `CN1CCC(c2ccc(Cl)cc2)C(C[S+]([O-])CCO)C1` (stereo not given), for which the Ki in assay [1] was found to be 42 nM; in assay [2], 2180 nM; in assay [3], 12 nM.

Regarding `CN1CCC(c2ccc(Cl)cc2)C(C[S+]([O-])CC(N)=O)C1` (stereo not given), the Ki is 5790 nM in assay [2] and 209 nM in assay [3].

Take `Cc1noc(CSCC2CN(C)CCC2c2ccc(Cl)cc2)n1` (stereo not given): the values for the Ki in assay [1], in assay [2] and in assay [3] were 32 nM, 221 nM and 126 nM, respectively.

In the case of `Cc1noc(C[S+]([O-])CC2CN(C)CCC2c2ccc(Cl)cc2)n1` (stereo not given), the Ki amounted to 218 nM in assay [1], 1080 nM in assay [2] and 1650 nM in assay [3].

Take `COC(=O)CSCC1CN(C)CCC1c1ccc(Cl)cc1` (stereo not given): the values for the Ki in assay [1], in assay [2] and in assay [3] were 25 nM, 208 nM and 80 nM, respectively.

In the case of `CN1CCC(c2ccc(Cl)cc2)C(CSCCO)C1` (stereo not given), the Ki in assay [1] was 0.94 nM; in assay [2] it was 158 nM; in assay [3], 16 nM.

Regarding `CN1CCC(c2ccc(Cl)cc2)C(CSCCOC(=O)c2ccccc2)C1` (stereo not given), the figures for the Ki in assay [1], in assay [2] and in assay [3] were 4.5 nM, 6.7 nM and 68 nM, respectively.

With `COC(=O)C1CN(C)CCC1c1ccc(Cl)cc1` (stereo not given), the values for the Ki in assay [1] and in assay [2] were 252 nM and 8490 nM, respectively.
